Series [1] has as its target Serine/threonine-protein kinase B-raf (Homo sapiens, UniProt P15056). Put plainly: Inhibition of human recombinant B-Raf by fluorescence anisotropy. On the technique in general: In fluorescence polarisation assays a small probe gives low polarisation when free and higher when bound to something large.
Series [2] concerns the target Mitogen-activated protein kinase; ERK1/ERK2 (Homo sapiens, UniProt P27361+P28482). The experiment in a line: Inhibition of ERK1/2 phosphorylation in human MALME3M cells. The format is cell-based.
Series [3] is described as follows: Aqueous solubility at pH 6.5 by shake-flask method. The format is physicochemical. The note with it: aqueous medium.
A further series has as its system Mus musculus. The experiment in a line: Inhibition of ERK phosphorylation in human LOX tumor xenografted mouse at 25 mg/kg, po after 1 hrs by Western blot method. The format is functional, organism-based. On the set-up: dose 25 mg/kg. In general terms: A xenograft is tissue or cells of one species grown in another, often human tumour cells in immunodeficient mice.

Values after ≈ are worked out from the molar mass of the structure shown. Active and inactive are the calls of the source. No cut-off for these calls is given here.

Serine/threonine-protein kinase B-raf, sequence (P15056 whole entry): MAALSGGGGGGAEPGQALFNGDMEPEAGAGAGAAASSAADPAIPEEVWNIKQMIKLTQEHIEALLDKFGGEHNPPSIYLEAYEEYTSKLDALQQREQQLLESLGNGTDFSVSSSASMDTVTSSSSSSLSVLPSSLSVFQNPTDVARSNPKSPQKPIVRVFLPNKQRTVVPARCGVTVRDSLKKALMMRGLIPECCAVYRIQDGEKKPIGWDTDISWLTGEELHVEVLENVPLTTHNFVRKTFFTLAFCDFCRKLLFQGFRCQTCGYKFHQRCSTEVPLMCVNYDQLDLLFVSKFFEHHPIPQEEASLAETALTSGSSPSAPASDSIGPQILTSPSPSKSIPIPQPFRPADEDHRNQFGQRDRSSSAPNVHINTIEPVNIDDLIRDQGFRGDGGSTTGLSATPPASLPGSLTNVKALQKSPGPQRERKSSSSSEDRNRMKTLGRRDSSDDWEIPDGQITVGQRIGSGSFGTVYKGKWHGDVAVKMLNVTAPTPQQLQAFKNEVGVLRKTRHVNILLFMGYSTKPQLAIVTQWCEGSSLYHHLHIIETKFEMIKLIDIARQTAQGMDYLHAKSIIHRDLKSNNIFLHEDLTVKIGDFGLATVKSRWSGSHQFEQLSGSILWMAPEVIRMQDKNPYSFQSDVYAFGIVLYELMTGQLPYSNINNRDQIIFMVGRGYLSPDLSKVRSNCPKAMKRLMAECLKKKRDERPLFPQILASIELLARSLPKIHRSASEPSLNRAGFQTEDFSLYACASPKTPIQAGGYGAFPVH

The IC50 is the concentration needed to halve the response being measured. On to `Cn1cc(-c2ccc3c(c2)C(=O)NC3)c(-c2ccncc2)n1`, for which the IC50 in series [1] was determined as 68.4 nM.

With `Cn1cc(-c2ccc3c(c2)CC/C3=N\O)c(-c2ccncn2)n1`, the results for the IC50 in series [1] and in series [2] were 3.1 nM and 1500 nM, respectively.

As for `Cn1cc(-c2ccc3c(c2)CC/C3=N\O)c(-c2cccnc2)n1`, in series [1], the IC50 worked out at 434 nM.

As for `O/N=C1\CCc2cc(-c3c[nH]nc3-c3ccncc3)ccc21`, the IC50 in series [1] is 0.15 nM; in series [2], 53 nM.

As for `Cn1cc(-c2ccc3cn[nH]c3c2)c(-c2ccncc2)n1`, the IC50 in series [1] stood at 70 nM.

Take `NCCCn1cc(-c2ccc3c(c2)CC/C3=N\O)c(-c2ccncc2)n1`: the IC50 in series [1] was 0.39 nM; in series [2], 20 nM.

With `Cn1cc(-c2ccc3c(c2)CC/C3=N\O)c(-c2ccnc(O)c2)n1`, the IC50 in series [1] stood at 2.9 nM; in series [2], 800 nM.

As to `Cn1cc(-c2ccc(/C(N)=N\O)cc2)c(-c2ccncc2)n1`, the IC50 in series [1] was determined as 18.4 nM; in series [2] it was 20000 nM.

The solubility (thermodynamic) is solubility found after equilibrating the solid with the medium. Consider `OCCn1cc(-c2ccc3c(c2)CC/C3=N\O)c(-c2ccncc2)n1`, for which the thermodynamic solubility in series [3] amounted to 76 µg/mL (≈ 227 µM). Further, the result in the series with Mus musculus was Active.

On to `NCCn1cc(-c2ccc3c(c2)CC/C3=N\O)c(-c2ccncc2)n1`, for which the IC50 was determined as 2.4 nM in series [1] and 119 nM in series [2].

With `O/N=C1\CCc2cc(-c3cn([C@@H]4CCC[C@H](O)C4)nc3-c3ccncc3)ccc21` (relative stereo), in series [3], the solubility (thermodynamic) was 3 µg/mL (≈ 7.72 µM). For the same compound, the result in the series with Mus musculus was Active. In addition, the IC50 in series [1] amounted to 0.04 nM; in series [2], 7 nM.

As for `Cn1ncc(-c2ccc3c(c2)CC/C3=N\O)c1-c1ccncc1`, the IC50 in series [1] was 0.48 nM; in series [2] it was 165 nM.

Turning to `O/N=C1\CCc2cc(-c3cn([C@H]4CCC[C@H]4O)nc3-c3ccncc3)ccc21` (relative stereo), the IC50 worked out at 3.91 nM in series [1] and 245 nM in series [2].

For `OCCCn1cc(-c2ccc3c(c2)CC/C3=N\O)c(-c2ccncc2)n1`, the results for the IC50 in series [1] and in series [2] were 0.05 nM and 26 nM, respectively.

Consider `O/N=C1\CCc2cc(-c3cn(C4CCOCC4)nc3-c3ccncc3)ccc21`, for which the IC50 in series [1] came to 0.22 nM; in series [2], 48 nM.

Turning to `OCC(CO)n1cc(-c2ccc3c(c2)CC/C3=N\O)c(-c2ccncc2)n1`, the values for the IC50 in series [1] and in series [2] were 0.56 nM and 171 nM, respectively.

As to `CN(C)CCCn1cc(-c2ccc3c(c2)CC/C3=N\O)c(-c2ccncc2)n1`, the IC50 in series [1] was found to be 0.47 nM; in series [2], 122 nM.

Regarding `O/N=C1\CCc2cc(-c3cn(CC4CCCNC4)nc3-c3ccncc3)ccc21` (stereo unspecified), the IC50 in series [1] turned out to be 0.85 nM; in series [2] it was 154 nM.

In the case of `O/N=C1\CCc2cc(-c3cn(C4CCCC4)nc3-c3ccncc3)ccc21`, the IC50 came out at 3.46 nM in series [1] and 57 nM in series [2].

On to `O/N=C1\CCc2cc(-c3cn([C@@H]4CCC[C@@H](O)C4)nc3-c3ccncc3)ccc21` (relative stereo), for which the IC50 in series [1] worked out at 0.09 nM; in series [2], 17 nM.

On to `CN1CCC(n2cc(-c3ccc4c(c3)CC/C4=N\O)c(-c3ccncc3)n2)CC1`, for which the IC50 in series [1] amounted to 0.34 nM; in series [2], 10 nM.

With `Cn1cc(-c2ccc(-c3cc[nH]n3)cc2)c(-c2ccncc2)n1`, the IC50 in series [1] was found to be 68.4 nM.

Take `Cn1cc(-c2ccc3c(c2)CC/C3=N\O)c(-c2cnco2)n1`: the IC50 was 4.1 nM in series [1] and 2400 nM in series [2].

The compound `Cn1cc(-c2ccc3c(c2)CN/C3=N/O)c(-c2ccncc2)n1` showed a solubility (thermodynamic) in series [3] of 590 µg/mL (≈ 1930 µM). Further, the results for the IC50 in series [1] and in series [2] were less than 2 nM and 56 nM, respectively.

Turning to `O/N=C1\CCc2cc(-c3cn(C4CCNCC4)nc3-c3ccncc3)ccc21`, the solubility (thermodynamic) in series [3] was 52 µg/mL (≈ 139 µM). Besides, the outcome with Mus musculus was inactive. For the same compound, the values for the 50% inhibitory concentration (IC50) in series [1] and in series [2] were 0.03 nM and 9 nM, respectively.

For `Cc1c[nH]nc1-c1ccc(-c2cn(C)nc2-c2ccncc2)cc1`, the IC50 in series [1] is 4.4 nM; in series [2] it was 18000 nM.

Turning to `OCC(O)Cn1cc(-c2ccc3c(c2)CC/C3=N\O)c(-c2ccncc2)n1` (stereo unspecified), the results for the half-inhibitory concentration (IC50) in series [1] and in series [2] were 0.87 nM and 22 nM, respectively.

Take `Cn1cc(-c2ccc3c(c2)Cc2c[nH]nc2-3)c(-c2ccncc2)n1`: the IC50 in series [1] was determined as 1.5 nM; in series [2], 1900 nM.

On to `Cn1cc(-c2ccc3c(c2)CC/C3=N\O)c(-c2ccc3c(cnn3C)c2)n1`, for which, in series [1], the IC50 is 970 nM.

Take `Cn1cc(-c2ccc3c(c2)CC/C3=N\O)c(-c2ccncc2)n1`: the IC50 was determined as 0.02 nM in series [1] and 33 nM in series [2].

In the case of `COCCn1cc(-c2ccc3c(c2)CC/C3=N\O)c(-c2ccncc2)n1`, the IC50 turned out to be 1.16 nM in series [1] and 569 nM in series [2].

Consider `CCn1cc(-c2ccc3c(c2)CC/C3=N\O)c(-c2ccncc2)n1`, for which the IC50 in series [1] is 0.57 nM; in series [2] it was 18 nM.

For the compound `Cn1cc(-c2ccc3c(c2)CC/C3=N\O)c(-c2ccnc(N)c2)n1`, the IC50 in series [1] is 2.1 nM; in series [2], 1000 nM.

In the case of `CNC1CCCC(n2cc(-c3ccc4c(c3)CC/C4=N\O)c(-c3ccncc3)n2)C1` (stereo unspecified), the IC50 in series [1] is 0.23 nM; in series [2], 18 nM.

On to `CN(C)CCn1cc(-c2ccc3c(c2)CC/C3=N\O)c(-c2ccncc2)n1`, for which the IC50 stood at 4.02 nM in series [1] and 607 nM in series [2].

For `Cn1cc(-c2ccc3c(c2)CCN/C3=N/O)c(-c2ccncc2)n1`, the IC50 in series [1] came out at 16 nM; in series [2], 10000 nM.

Take `O/N=C1\CCc2cc(-c3cn(CC4CCNCC4)nc3-c3ccncc3)ccc21`: the IC50 amounted to 1.2 nM in series [1] and 332 nM in series [2].

For `O/N=C1\CCc2cc(-c3cn([C@H]4CCC[C@@H]4O)nc3-c3ccncc3)ccc21` (relative stereo), the results for the IC50 in series [1] and in series [2] were 0.33 nM and 37 nM, respectively.

(Values after ChEMBL document CHEMBL1156613, “Potent and selective pyrazole-based inhibitors of B-Raf kinase” (Bioorg Med Chem Lett, 2008).)
